The values below come from PubChem BioAssay AID282 (DTP/NCI, 2004).

In the assay the test system is BDF1 mice, L1210 terephthalanilide-resistant leukemia ip, survival T/C. Nature of the assay: NCI In Vivo Anticancer Drug Screen. Data for tumor model L1210 Leukemia resistant to A Terephthalanilide; NSC 38280 (intraperitoneal) in B6D2F1 (BDF1) mice. To be noted: endpoint: mean survival time, higher = longer survival. Here is the method:
The antitumor activity of compounds was measured in mice bearing transplantable tumors. Survival or tumor size were measured and the results are expressed as the measurement made in the treated group (T) divided by the measurement made in the vehicle treated control group (C). The tumor model used in this assay is L1210 Leukemia resistant to A Terephthalanilide; NSC 38280 (intraperitoneal) in B6D2F1 (BDF1) mice

The mark [1] stands for this setting: dose: 12.5 mg/kg/injection, schedule: Q01DX Z (ip), vehicle: carboxymethylcellulose (CMC).
The mark [2] stands for this setting: dose: 16.0 mg/kg/injection, schedule: Q01DX010 (ip), vehicle: saline.
Setting [3] is: dose: 25.0 mg/kg/injection, schedule: Q01DX Z (ip), vehicle: carboxymethylcellulose (CMC).
[4] abbreviates: dose: 37.5 mg/kg/injection, schedule: Q01DX Z (ip), vehicle: carboxymethylcellulose (CMC).
[5] abbreviates: dose: 50.0 mg/kg/injection, schedule: Q01DX Z (ip), vehicle: carboxymethylcellulose (CMC).
Setting [6] is: dose: 100.0 mg/kg/injection, schedule: Q01DX Z (ip), vehicle: carboxymethylcellulose (CMC).
Where [7] appears, read: dose: 62.5 mg/kg/injection, schedule: Q01DX010 (ip), vehicle: saline.
Setting [8] is: dose: 125.0 mg/kg/injection, schedule: Q01DX010 (ip), vehicle: saline.

Values joined by “and” are separate entries in the source; they are usually repeats but may differ in a detail not shown here. Identical values can stand only once. Toxic doses and inconclusive results are not listed.

Consider `c1ccc(CNc2ncnc3[nH]ncc23)cc1`, for which the T/C is, setting by setting: (dose: 8.0 mg/kg/injection, schedule: Q01DX010 (ip), vehicle: saline) 102 % of control and 107 % of control; under setting [1], 97 % of control; under setting [2], 103 % of control and 114 % of control; under setting [3], 109 % of control; (dose: 32.0 mg/kg/injection, schedule: Q01DX010 (ip), vehicle: saline) 107 % of control; under setting [4], 116 % of control. Also, the T/C by setting is: under setting [5], 97 % of control; (dose: 64.0 mg/kg/injection, schedule: Q01DX010 (ip), vehicle: saline) 99 % of control and 103 % of control.

`O=C(Nc1ccc(NC2=NCCN2)cc1)c1ccc(C(=O)Nc2ccc(NC3=NCCN3)cc2)cc1`: the T/C (dose: 2.0 mg/kg/injection, schedule: Q01DX010 (ip), vehicle: saline) was 112 % of control and 113 % of control; the T/C (dose: 4.0 mg/kg/injection, schedule: Q01DX010 (ip), vehicle: saline) was 115 % of control; the T/C under setting [2] was 122 % of control and 115 % of control.

`O=c1[nH]cc(F)c(=O)[nH]1`: the T/C (dose: 0.37 mg/kg/injection, schedule: Q01DX Z (ip), vehicle: carboxymethylcellulose (CMC)) was 102 % of control; the T/C (dose: 0.75 mg/kg/injection, schedule: Q01DX Z (ip), vehicle: carboxymethylcellulose (CMC)) was 114 % of control; the T/C (dose: 1.5 mg/kg/injection, schedule: Q01DX Z (ip), vehicle: carboxymethylcellulose (CMC)) is 117 % of control; the T/C (dose: 5.0 mg/kg/injection, schedule: Q01DX010 (ip), vehicle: saline) is 119 % of control; the T/C (dose: 6.25 mg/kg/injection, schedule: Q01DX Z (ip), vehicle: carboxymethylcellulose (CMC)) is 175 % of control; the T/C (dose: 10.0 mg/kg/injection, schedule: Q01DX010 (ip), vehicle: saline) is 119 % of control. Besides, the T/C by setting is: under setting [1], 185 % of control; (dose: 20.0 mg/kg/injection, schedule: Q01DX010 (ip), vehicle: saline) 181 % of control and 198 % of control; under setting [3], 227 % of control; (dose: 40.0 mg/kg/injection, schedule: Q01DX010 (ip), vehicle: saline) 104 % of control and 110 % of control; under setting [6], 94 % of control and 102 % of control.

Regarding `CCn1cnc2c(=S)nc[nH]c21`, the T/C is 104 % of control (dose: 15.6 mg/kg/injection, schedule: Q01DX010 (ip), vehicle: saline); 113 % of control under setting [3]; 106 % of control and 109 % of control (dose: 31.3 mg/kg/injection, schedule: Q01DX010 (ip), vehicle: saline); 95 % of control and 118 % of control under setting [7]; 155 % of control under setting [6]; 123 % of control and 106 % of control under setting [8].

In the case of `O=c1[nH]c(=O)n(C2CC(O)C(CO)O2)cc1Br` (stereo not given), the T/C reads like this: (dose: 62.5 mg/kg/injection, schedule: Q01DX Z (ip), vehicle: carboxymethylcellulose (CMC)) 110 % of control; (dose: 500.0 mg/kg/injection, schedule: Q01DX Z (ip), vehicle: carboxymethylcellulose (CMC)) 119 % of control.

`c1ccc(CCSc2ncnc3nc[nH]c23)cc1`: the T/C is, setting by setting: under setting [7], 90 % of control; under setting [8], 104 % of control; (dose: 250.0 mg/kg/injection, schedule: Q01DX010 (ip), vehicle: saline) 99 % of control.

On to `C1CN1c1nc(N2CC2)nc(N2CC2)n1`, for which the T/C (dose: 0.13 mg/kg/injection, schedule: Q01DX010 (ip), vehicle: saline) was 108 % of control; the T/C (dose: 0.25 mg/kg/injection, schedule: Q01DX010 (ip), vehicle: saline) is 99 % of control; the T/C (dose: 0.5 mg/kg/injection, schedule: Q01DX010 (ip), vehicle: saline) is 104 % of control.

Turning to `O=C1C(NC(=O)C2CCCCC2)=C(N2CC2)C(=O)C(NC(=O)C2CCCCC2)=C1N1CC1`, the T/C by setting is: (dose: 6.25 mg/kg/injection, schedule: Q01DX010 (ip), vehicle: saline) 98 % of control; (dose: 12.5 mg/kg/injection, schedule: Q01DX010 (ip), vehicle: saline) 98 % of control; (dose: 18.0 mg/kg/injection, schedule: Q01DX Z (ip), vehicle: carboxymethylcellulose (CMC)) 108 % of control; (dose: 25.0 mg/kg/injection, schedule: Q01DX010 (ip), vehicle: saline) 93 % of control and 98 % of control; under setting [3], 97 % of control; under setting [4], 91 % of control. For the same compound, the T/C is, setting by setting: (dose: 50.0 mg/kg/injection, schedule: Q01DX010 (ip), vehicle: saline) 90 % of control and 102 % of control; under setting [5], 100 % of control; (dose: 125.0 mg/kg/injection, schedule: Q01DX Z (ip), vehicle: carboxymethylcellulose (CMC)) 121 % of control; (dose: 250.0 mg/kg/injection, schedule: Q01DX Z (ip), vehicle: carboxymethylcellulose (CMC)) 122 % of control.

For the compound `CN(C)c1ccc(Nc2c3ccccc3nc3ccccc23)cc1`, the T/C (dose: 36.0 mg/kg/injection, schedule: Q01DX010 (ip), vehicle: saline) is 108 % of control; the T/C (dose: 54.0 mg/kg/injection, schedule: Q01DX010 (ip), vehicle: saline) was 102 % of control and 111 % of control; the T/C (dose: 80.0 mg/kg/injection, schedule: Q01DX010 (ip), vehicle: saline) was 97 % of control and 109 % of control; the T/C (dose: 120.0 mg/kg/injection, schedule: Q01DX010 (ip), vehicle: saline) was 119 % of control.
